Tests used:
Format in all cases: in vivo
[1] = test system: male testis-specific non-mitochondrial GPx4 knockout mouse; experiment: Abnormal sperm ratio and sperm-tail fold angle by microscopy; conditions: "VE high-content feed": vitamin E 100 mg + CE-2 feed 100 g; FIG. 4
Excerpt: A single 3 weeks-old male testis-specific non-mitochondrial GPx4 knockout mouse was assigned to each of the four groups shown in Table 2 (below) and separately raised (singly per cage) up to 8 weeks-old. To a normal control group, mouse breeding feed CE-2 (CLEA Rodent Diet CE-2; a product manufactured by CLEA Japan, Inc.) was fed during the test period. As a positive control substance, vitamin E (Non Patent Literature 1), which is used in treatment for male infertility, was selected and a mixture of feed CE-2 and vitamin E was fed to a positive control substance administration group during the test period. The ratio of vitamin E in the mixture was 100 mg relative to 100 g of feed CE-2. To the test groups, a mixture of feed CE-2 and koji mold fermentation product obtained in Example 1 was fed during the test period. For a low dose group, a feed having a content of koji mold fermentation product of 0.5 wt % was used. […]
In a testis-specific non-mitochondrial GPx4 knockout mouse, a half or more of the sperms have an abnormal structure (a sperm tail is folded to form a hair-pin structure); in other words, abnormal sperm morphology. […] The sperms in a plurality of fields of view under the microscope were photographed, and the numbers of normal sperms and abnormal sperms in the photographs were counted, and then, an average ratio of abnormal sperms was calculated.

[2] = test system: male testis-specific non-mitochondrial GPx4 knockout mouse; experiment: Mating test of male infertility model mouse (number of pregnancies and child mice); conditions: "VE high-content feed": vitamin E 100 mg + CE-2 feed 100 g, mating period 3 months
Excerpt: In this Example, as a male infertility model mouse, a male testis-specific non-mitochondrial GPx4 knockout mouse was used (see, Non Patent Literature 2). The testis-specific non-mitochondrial GPx4 knockout mouse is a mouse deficient in non-mitochondrial phospholipid hydroperoxide glutathione peroxidase (cGPx4) in the testis and has the phenotypes listed in the following Table 1.
A single 3 weeks-old male testis-specific non-mitochondrial GPx4 knockout mouse was assigned to each of the four groups shown in Table 2 (below) and separately raised (singly per cage) up to 8 weeks-old. To a normal control group, mouse breeding feed CE-2 (CLEA Rodent Diet CE-2; a product manufactured by CLEA Japan, Inc.) was fed during the test period. As a positive control substance, vitamin E (Non Patent Literature 1), which is used in treatment for male infertility, was selected and a mixture of feed CE-2 and vitamin E was fed to a positive control substance administration group during the test period. The ratio of vitamin E in the mixture was 100 mg relative to 100 g of feed CE-2. To the test groups, a mixture of feed CE-2 and koji mold fermentation product obtained in Example 1 was fed during the test period. For a low dose group, a feed having a content of koji mold fermentation product of 0.5 wt % was used. For a high dose group, a feed having a content of koji mold fermentation product of 5.0 wt % was used. Feed CE-2 and feed CE-2 mixed with the positive control substance or a koji mold fermentation product were free to take and water was free to drink from a water-supply bottle. In the aforementioned conditions, mice were raised from 3 weeks-old to 8 weeks-old.
When male testis-specific non-mitochondrial GPx4 knockout mice grew up to be crossable (8 weeks-old) mice, three of 7 weeks-old BALB/c female mice were assigned to each cage and crossed with a single male testis-specific non-mitochondrial GPx4 knockout mouse. The mating period was 3 months. […]

[3] = test system: male testis-specific non-mitochondrial GPx4 knockout mouse; experiment: Testis tissue observation (hematoxylin eosin), removal of spermatocytes; conditions: "VE high-content feed": vitamin E 100 mg + CE-2 feed 100 g; FIG. 6
Excerpt: A single 3 weeks-old male testis-specific non-mitochondrial GPx4 knockout mouse was assigned to each of the four groups shown in Table 2 (below) and separately raised (singly per cage) up to 8 weeks-old. To a normal control group, mouse breeding feed CE-2 (CLEA Rodent Diet CE-2; a product manufactured by CLEA Japan, Inc.) was fed during the test period. As a positive control substance, vitamin E (Non Patent Literature 1), which is used in treatment for male infertility, was selected and a mixture of feed CE-2 and vitamin E was fed to a positive control substance administration group during the test period. The ratio of vitamin E in the mixture was 100 mg relative to 100 g of feed CE-2. To the test groups, a mixture of feed CE-2 and koji mold fermentation product obtained in Example 1 was fed during the test period. For a low dose group, a feed having a content of koji mold fermentation product of 0.5 wt % was used. For a high dose group, a feed having a content of koji mold fermentation product of 5.0 wt % was used. Feed CE-2 and feed CE-2 mixed with the positive control substance or a koji mold fermentation product were free to take and water was free to drink from a water-supply bottle. In the aforementioned conditions, mice were raised from 3 weeks-old to 8 weeks-old. […]

In the case of vitamin E, the “significantly low ratio of abnormal sperms” value [1] is reported as “not observed”, the “total number of child mice” value ([2]; 3 females, FIG. 2b) is reported as 60 and the “number of child mice per delivery of the female mice” value ([2]; FIG. 2c) is reported as 7. The “total number of pregnancies of three female mice” value ([2]; single male x 3 BALB/c females, FIG. 2a) was 8 and the “removal of the spermatocytes in testis tissue” value [3] was “improved”.

Reference: patent US20210128654A1, “COMPOSITION FOR TREATING, PREVENTING, OR IMPROVING MALE INFERTILITY” (Mugen General Incorporated Association, priority 2018, published 2021)
